# Reference: ChEMBL document CHEMBL1201862, “PubChem BioAssay data set” (2004)
# Active and inactive are the calls of the source.
# Key:
# [1] = Luminescence Cell-Based Dose Retest to Confirm Inhibitors of Cancer Stem Cells. [Related pubchem assays (depositor defined):AID2717, AID2721]; assay type: functional; details: Homo sapiens
# [2] = viability of PTEN-deleted HCT116 cells – cell-based, HCT116 PTEN knockout, dose response (AID 1047); assay type: functional;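 also: HCT116 colon tumor cells with PTEN knocked out; cells exposed to compound for 60 hours before readout; potency for loss of cell viability measured by luminescence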
# [3] = viability loss in Vero cells – cytotoxicity control for Vif-APOBEC3G degradation inhibitor project, dose response (AID 1117358); assay type: functional; details: Vero
# [4] = viability of HCT116 lacking mutant beta-catenin – cell-based, human colon tumor, dose response (AID 1045); assay type: functional;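 also: HCT116 colon tumor cells with beta catenin knocked out; cells exposed to compound for 60 hours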
# [5] = molecular target: T1, RNA-editing ligase 1, mitochondrial (Trypanosoma brucei brucei, UniProt P86926); assay: inhibition of trypanosome RNA editing ligase – biochemical, fluorescence, Trypanosoma brucei, dose response (AID 1117295); assay type: functional
# T1 sequence (P86926 whole entry): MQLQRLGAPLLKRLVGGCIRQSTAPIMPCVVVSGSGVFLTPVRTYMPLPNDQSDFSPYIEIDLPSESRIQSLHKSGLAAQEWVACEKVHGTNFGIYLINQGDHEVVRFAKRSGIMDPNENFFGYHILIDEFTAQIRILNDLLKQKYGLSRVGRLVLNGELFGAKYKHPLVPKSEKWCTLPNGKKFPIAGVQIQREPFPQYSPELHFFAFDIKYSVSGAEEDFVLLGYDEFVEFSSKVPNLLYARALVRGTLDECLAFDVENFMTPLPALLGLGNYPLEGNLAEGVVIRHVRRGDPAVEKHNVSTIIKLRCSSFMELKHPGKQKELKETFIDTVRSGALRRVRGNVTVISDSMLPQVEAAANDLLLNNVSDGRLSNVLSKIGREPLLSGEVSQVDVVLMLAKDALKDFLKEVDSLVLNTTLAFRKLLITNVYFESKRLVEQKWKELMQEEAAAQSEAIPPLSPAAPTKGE
# [6] = molecular target: T2, Apoptotic protease-activating factor 1 (Homo sapiens, UniProt O14727); assay type: functional
# T2 sequence (O14727 whole entry): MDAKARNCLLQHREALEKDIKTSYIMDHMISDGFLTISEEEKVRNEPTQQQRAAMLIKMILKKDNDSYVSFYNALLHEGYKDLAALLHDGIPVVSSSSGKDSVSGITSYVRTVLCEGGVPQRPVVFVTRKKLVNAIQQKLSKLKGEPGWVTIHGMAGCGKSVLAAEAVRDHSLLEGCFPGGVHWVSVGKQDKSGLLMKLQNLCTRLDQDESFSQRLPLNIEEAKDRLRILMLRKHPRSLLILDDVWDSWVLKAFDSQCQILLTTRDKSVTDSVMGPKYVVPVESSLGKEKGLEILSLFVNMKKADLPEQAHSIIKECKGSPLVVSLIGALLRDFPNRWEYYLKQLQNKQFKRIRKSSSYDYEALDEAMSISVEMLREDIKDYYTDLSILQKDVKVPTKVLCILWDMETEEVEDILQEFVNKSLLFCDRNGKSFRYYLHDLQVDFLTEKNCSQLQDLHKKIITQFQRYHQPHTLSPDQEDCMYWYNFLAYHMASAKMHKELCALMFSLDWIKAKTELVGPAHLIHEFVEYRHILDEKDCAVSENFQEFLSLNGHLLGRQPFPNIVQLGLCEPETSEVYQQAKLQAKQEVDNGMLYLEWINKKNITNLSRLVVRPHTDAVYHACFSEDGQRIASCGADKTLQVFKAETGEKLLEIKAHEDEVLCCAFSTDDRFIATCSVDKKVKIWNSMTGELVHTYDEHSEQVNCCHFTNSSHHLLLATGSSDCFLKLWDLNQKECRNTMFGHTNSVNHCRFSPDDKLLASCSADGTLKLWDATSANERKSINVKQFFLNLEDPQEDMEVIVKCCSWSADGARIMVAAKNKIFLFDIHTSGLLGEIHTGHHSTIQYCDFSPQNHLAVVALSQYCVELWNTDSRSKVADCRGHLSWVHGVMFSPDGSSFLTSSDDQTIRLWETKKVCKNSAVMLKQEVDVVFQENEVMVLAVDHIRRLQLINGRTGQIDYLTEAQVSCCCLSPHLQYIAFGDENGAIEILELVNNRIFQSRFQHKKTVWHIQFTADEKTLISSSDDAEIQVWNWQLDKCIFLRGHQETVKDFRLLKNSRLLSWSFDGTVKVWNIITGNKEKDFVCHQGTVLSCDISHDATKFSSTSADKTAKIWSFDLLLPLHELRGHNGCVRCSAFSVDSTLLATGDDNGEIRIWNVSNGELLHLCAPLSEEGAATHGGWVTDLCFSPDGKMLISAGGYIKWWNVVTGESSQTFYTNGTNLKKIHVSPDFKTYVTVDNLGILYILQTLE
# [7] = molecular target: T3, Dual specificity protein phosphatase 6 (Rattus norvegicus, UniProt Q64346); assay: inhibition of rat DUSP6 enzyme activity – biochemical, in vitro, primary screen (AID 425)
# T3 sequence (Q64346 whole entry): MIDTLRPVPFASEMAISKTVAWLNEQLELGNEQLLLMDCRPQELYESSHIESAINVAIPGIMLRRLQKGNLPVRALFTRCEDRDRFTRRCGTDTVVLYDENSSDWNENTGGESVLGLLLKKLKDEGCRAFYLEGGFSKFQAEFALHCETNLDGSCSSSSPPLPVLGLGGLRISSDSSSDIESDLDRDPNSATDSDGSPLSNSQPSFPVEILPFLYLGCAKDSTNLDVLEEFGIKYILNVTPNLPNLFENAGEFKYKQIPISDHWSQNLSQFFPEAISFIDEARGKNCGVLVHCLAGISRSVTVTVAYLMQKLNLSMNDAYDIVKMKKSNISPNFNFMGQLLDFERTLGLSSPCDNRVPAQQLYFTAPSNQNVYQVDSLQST
# [8] = molecular target: T4, Histone-lysine N-methyltransferase NSD2 (Homo sapiens, UniProt O96028); assay type: biochemical
# T4 sequence (O96028 whole entry): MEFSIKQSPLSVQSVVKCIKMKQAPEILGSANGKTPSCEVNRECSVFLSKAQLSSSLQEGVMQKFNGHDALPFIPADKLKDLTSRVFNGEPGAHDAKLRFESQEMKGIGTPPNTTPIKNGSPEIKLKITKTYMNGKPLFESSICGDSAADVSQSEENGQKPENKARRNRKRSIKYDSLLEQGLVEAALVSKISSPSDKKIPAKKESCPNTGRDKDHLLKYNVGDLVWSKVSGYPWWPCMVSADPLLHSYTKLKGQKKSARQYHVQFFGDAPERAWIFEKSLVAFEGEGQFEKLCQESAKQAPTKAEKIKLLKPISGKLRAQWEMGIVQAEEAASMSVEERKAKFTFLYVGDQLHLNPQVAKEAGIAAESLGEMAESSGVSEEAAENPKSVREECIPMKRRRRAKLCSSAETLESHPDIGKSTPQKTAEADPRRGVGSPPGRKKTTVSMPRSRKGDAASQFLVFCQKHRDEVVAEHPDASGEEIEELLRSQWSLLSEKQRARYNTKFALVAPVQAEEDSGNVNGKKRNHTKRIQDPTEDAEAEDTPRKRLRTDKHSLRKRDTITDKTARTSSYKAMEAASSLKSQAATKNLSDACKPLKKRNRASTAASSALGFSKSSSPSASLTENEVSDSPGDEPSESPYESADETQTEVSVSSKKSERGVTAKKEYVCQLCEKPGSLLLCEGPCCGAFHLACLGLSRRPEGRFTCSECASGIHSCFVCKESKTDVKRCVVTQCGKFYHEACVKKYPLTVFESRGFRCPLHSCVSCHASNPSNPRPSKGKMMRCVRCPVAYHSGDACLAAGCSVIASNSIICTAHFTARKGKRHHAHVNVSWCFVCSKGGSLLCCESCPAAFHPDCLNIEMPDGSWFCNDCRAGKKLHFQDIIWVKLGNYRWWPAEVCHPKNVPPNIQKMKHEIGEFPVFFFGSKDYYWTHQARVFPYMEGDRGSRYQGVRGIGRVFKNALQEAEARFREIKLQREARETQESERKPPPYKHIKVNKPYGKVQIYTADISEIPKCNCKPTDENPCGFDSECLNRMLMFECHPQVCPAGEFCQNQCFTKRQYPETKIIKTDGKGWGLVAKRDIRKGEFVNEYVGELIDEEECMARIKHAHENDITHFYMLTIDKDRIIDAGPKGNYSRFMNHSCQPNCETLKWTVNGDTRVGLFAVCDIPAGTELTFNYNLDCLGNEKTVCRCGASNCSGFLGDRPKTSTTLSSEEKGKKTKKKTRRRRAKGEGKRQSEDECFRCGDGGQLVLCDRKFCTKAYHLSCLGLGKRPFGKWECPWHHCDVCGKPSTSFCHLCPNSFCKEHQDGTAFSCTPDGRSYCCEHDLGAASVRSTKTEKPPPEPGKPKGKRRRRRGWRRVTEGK
# Streptokinase A = molecular target: T5, Streptokinase A (Streptococcus pyogenes serotype M1, UniProt P10520); assay: viability-normalized secreted streptokinase activity reduction – plasminogen activation absorbance, OD405, dose response (AID 1914); assay type: functional, Streptococcus pyogenes M1 GAS;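 also: secreted streptokinase activity via plasminogen activation per viability signal from cell pellet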
# T5 sequence (P10520 whole entry): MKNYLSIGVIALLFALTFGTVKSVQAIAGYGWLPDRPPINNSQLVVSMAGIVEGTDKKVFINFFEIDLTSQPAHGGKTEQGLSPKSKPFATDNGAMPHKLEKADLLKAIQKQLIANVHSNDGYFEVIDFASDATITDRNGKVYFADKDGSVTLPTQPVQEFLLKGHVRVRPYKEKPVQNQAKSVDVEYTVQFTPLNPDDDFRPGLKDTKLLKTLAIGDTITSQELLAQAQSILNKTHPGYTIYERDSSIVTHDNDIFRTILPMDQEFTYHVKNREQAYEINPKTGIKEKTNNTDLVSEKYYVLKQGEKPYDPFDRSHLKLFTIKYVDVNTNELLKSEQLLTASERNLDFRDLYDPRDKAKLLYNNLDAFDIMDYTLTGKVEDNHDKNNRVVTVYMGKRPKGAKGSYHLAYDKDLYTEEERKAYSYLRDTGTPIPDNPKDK
# Vero = assay: mammalian cell viability reduction – secondary assay, cytotoxicity control for West Nile virus antiviral project, dose response (AID 1650); assay type: functional; details: Chlorocebus sabaeus
# [9] = IC50 of Artemis nuclease activity blockers – biochemical, fluorescence intensity, dose response (AID 720701); assay type: functional;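 also: Artemis endonuclease enzyme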
# Streptococcus = assay: GAS UMAA2166 growth inhibition – luminescence, BacTiterGlo, counter-screen for streptokinase expression inhibitor project, dose response (AID 1915); assay type: functional, organism-based;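 also: potency for reduction of bacterial viability or growth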
# [10] = molecular target: Sphingosine 1-phosphate receptor 2 (Homo sapiens, UniProt O95136); assay: Dose Response Cell Based Assay for Antagonists of the S1P2 Receptor. [Related pubchem assays: 856, 736 ]; assay type: functional
# Sequence of Sphingosine 1-phosphate receptor 2 (O95136 whole entry): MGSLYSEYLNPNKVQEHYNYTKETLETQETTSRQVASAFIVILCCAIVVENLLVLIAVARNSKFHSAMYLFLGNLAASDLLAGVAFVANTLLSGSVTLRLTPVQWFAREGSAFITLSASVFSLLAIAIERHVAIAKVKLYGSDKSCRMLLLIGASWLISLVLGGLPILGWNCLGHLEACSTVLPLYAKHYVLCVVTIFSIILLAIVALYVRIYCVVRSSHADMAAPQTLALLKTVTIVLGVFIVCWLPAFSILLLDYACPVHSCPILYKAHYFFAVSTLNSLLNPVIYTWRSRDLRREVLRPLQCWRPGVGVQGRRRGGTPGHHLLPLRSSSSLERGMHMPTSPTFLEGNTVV
# [11] = tested on: Streptococcus sp. 'group A'; assay: Streptococcus pyogenes SK(-)GAS viability under kanamycin – luminescence, BacTiterGlo, confirmation, counter-screen for streptokinase expression inhibitor project, dose response (AID 1900); assay type: functional, organism-based
# INS1 = assay: INS-1E survival protection against cytokine death – cell-based, luminescence, retest, dose response (AID 449756); assay type: functional; details: Rattus norvegicus;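 also: cell death triggered by IL-1 beta plus TNF-alpha plus IFN-gamma mixture; protective hits raise ATP signal compared with cytokine alone wells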
# Estrogen receptor beta [12] = molecular target: T6, Estrogen receptor beta (Homo sapiens, UniProt Q92731); assay: blockers of SRC-3 recruitment to ERβ – biochemical, ELISA, streptavidin-HRP readout, orthogonal assay, confirmation (AID 1060)
# T6 sequence (Q92731 whole entry): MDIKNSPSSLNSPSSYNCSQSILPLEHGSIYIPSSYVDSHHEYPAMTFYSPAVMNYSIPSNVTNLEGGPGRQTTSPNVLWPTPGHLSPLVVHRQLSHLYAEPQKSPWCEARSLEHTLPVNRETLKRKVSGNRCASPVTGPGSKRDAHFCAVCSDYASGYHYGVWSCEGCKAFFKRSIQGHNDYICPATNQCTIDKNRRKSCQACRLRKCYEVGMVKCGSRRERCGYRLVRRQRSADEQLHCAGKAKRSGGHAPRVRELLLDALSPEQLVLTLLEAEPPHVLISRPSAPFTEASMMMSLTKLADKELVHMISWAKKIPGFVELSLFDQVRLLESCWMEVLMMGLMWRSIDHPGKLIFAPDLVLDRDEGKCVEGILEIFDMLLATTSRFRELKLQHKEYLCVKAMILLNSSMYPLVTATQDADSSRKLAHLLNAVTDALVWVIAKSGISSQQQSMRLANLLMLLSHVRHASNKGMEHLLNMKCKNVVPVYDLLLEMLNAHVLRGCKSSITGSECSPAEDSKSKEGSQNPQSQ
# Estrogen receptor beta [13] = molecular target: T6, Estrogen receptor beta
# Estrogen receptor = molecular target: T7, Estrogen receptor (Homo sapiens, UniProt P03372);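 also: potency for inhibiting coactivator peptide recruitment to the receptor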
# T7 sequence (P03372 whole entry): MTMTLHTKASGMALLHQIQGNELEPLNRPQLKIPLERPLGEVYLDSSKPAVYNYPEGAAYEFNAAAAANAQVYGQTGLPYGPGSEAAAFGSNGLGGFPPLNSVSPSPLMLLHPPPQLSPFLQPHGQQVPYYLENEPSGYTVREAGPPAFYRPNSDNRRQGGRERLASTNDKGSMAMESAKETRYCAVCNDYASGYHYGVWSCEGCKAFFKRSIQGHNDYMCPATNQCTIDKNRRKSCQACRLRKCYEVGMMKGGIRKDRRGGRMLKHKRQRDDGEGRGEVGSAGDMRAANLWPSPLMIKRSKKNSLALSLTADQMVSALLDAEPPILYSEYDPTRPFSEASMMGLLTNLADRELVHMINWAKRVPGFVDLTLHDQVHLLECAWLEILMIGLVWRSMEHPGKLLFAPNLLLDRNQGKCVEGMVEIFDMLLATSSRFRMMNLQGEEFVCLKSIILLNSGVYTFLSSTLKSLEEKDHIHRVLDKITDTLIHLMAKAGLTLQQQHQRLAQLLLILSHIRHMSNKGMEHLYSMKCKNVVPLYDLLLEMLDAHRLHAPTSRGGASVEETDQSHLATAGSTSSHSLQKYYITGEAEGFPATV
structure (smiles),measurement,setting,value
COC(=O)c1ccc(COc2ccccc2/C=C(\C#N)C(=O)Nc2c(C)cc(C)cc2C)cc1,AC50,[1],1.28 µM (active)
same,EC50,[2],5.83 µM (active)
same,CC50,[3],15.9 µM (active)
same,EC50,[4],5.33 µM (active)
CCCCNC(=O)c1c(N)n(CCCOC)c2nc3ccccc3nc12,IC50,[5],17.9 µM (inactive)
same,IC50,[6],27.7 µM (active)
same,IC50,[7],> 100 µM (not active)
same,AC50,[8],8.05 µM (active)
Cc1cc(/C=N/n2cnnc2)c(C)n1-c1ccc(OCc2ccc(Cl)cc2)cc1,EC50,Streptokinase A,12.9 µM (active)
same,CC50,Vero,1.02 µM (active)
same,IC50,[9],15.7 µM (active)
same,EC50,Streptococcus,12.3 µM (active)
same,IC50,[10],49.3 µM (not active)
same,EC50,[11],5.41 µM (active)
same,AC50,INS1,1.15 µM (active)
CCOC(=O)C1=c2/c(=C/c3ccccc3OC)c(N)c(C#N)n2C(=O)C(c2ccccc2OC)S1 (stereo not drawn),IC50,Estrogen receptor beta [12],78.5 µM (not active)
same,IC50,Estrogen receptor beta [13],> 50 µM (not active)
same,IC50,Estrogen receptor,9.8 µM (active)
